US8987257B2 (Novartis AG, priority 2011, dated 2015)

Tests used:
H4 mCherry-GFP-LC3 cells = test: Test 4: Autophagy Assay (mCherry-GFP-LC3 reporter, high-content imaging); type: cell-based; settings: Homo sapiens, 16-18 h
Description: Autophagy is a catabolic pathway that degrades bulk cytosol in lysosomal compartments enabling amino acids and fatty acids to be recycled. […] To quantify autophagy induction by mTOR inhibitors, we use a mCherry-GFP-LC3 reporter which is amenable to retroviral delivery into mammalian cells, stable expression and analysis by fluorescence microscopy.
Described hereinafter is an imaging protocol and image recognition algorithm to visualize and measure changes in the autophagic pathway.
Quantification of Autophagy Using High-Content Imaging and Analysis
• 1. Day 0: Cell plating. Subconfluent H4 mCherry-GFP-LC3 cells are harvested by trypsinization, resuspended in growth medium, and counted (H4 cells: Human neuroglioma cell line (ATCC)). A cell suspension of 66′000 cells/mL is prepared and 30 μL are added into the wells of a 384-well plate using an electronic multichannel pipette. […] The cell plates are briefly spun down and placed at 37° C. and 5% CO2. • 2. Day 1: Compound treatment. Compound dose responses are prepared in DMSO. The dose responses are then diluted 1:50 in medium. 10 ul of the diluted compound is added to 30 ul of cells, yielding a final 1:200 dilution of the original compound and final of 0.5% DMSO. Compound-treatments are performed in triplicates. The 384-well plates are placed at 37° C. and 5% CO2. Compound treatment is performed for 16-18 h (see Note 1). • 3. Day 2: Cell fixation. Cells are fixed by adding 10 μL/well 5× concentrated Mirsky's fixative supplemented with 25 μg/mL Hoechst33342. […] The 384-well plate is briefly spun down and incubated for 1 h at room temperature. Cells are then washed using a 384-well plate washer using a protocol which aspirates the volume down to 10 μL/well before dispensing 100 μL/well 1×TBS. Aspiration and dispensing steps are repeated 4 times and a final volume of 100 μL/well is left. The plate is sealed using an adhesive PCR foil. • 4. Imaging. The bottom of the plate is cleaned with 70% ethanol and then imaged using the InCell 1000 automated epifluorescence microscope. 20× magnification is used and 4 different areas (fields) are imaged per well, this typically captures a total of around 400 cells per well. Hoechst33342 images are acquired using an excitation of 360 nm (D360—40× filter), an emission of 460 nm (HQ460—40M filter) and an exposure time of 150 ms. GFP images are acquired using an excitation of 475 nm (S47520× filter), an emission of 535 nm (HQ535—50M filter) and an exposure time of 1 s. mCherry images are acquired using an excitation of 535 nm (HQ535—50× filter), an emission of 620 nm (HQ620—60M filter) and an exposure time of 1 s. A quadruple band pass mirror is used for all images. • 5. Image analysis. The InCell Analysis software is used to analyze the images using the Multi Target Analysis algorithm. First, nuclei are detected in the Hoechst33342 image using top-hat segmentation and a minimal nuclear area of 50 μm^2. Cells are defined using a collar of 10 μm around the nuclei. Second, puncta (organelles) are identified in the mCherry image inside the cells using multi-top-hat segmentation. Third, the mask of the mCherry puncta is transferred onto the GFP image. Fourth, the GFP fluorescence intensity inside the mCherry puncta mask is measured (reference intensity). • 6. The ‘organelles’ parameter reflects mCherry-positive puncta of the mCherry-GFP-LC3 reporter and is used to calculate ‘LC3 puncta/cell’. For this purpose, the number of organelles is calculated per cell and averaged over all the cells in a given well (average per cell basis). mCherry-positive LC3 puncta numbers (y-axis) are plotted against the compound dose response values (x-axis) and EC50 values are calculated for each compound. EC50 values represent compound potency in terms of autophagy activation (e.g. increase in mCherry-positive LC3 puncta count). Notes • 1. Autophagy-modulation and redistribution of mCherry-GFP-LC3 can be already observed after a compound treatment time of 3-4 h. […]

FRAP1/mTOR = FRAP1/mTOR (Homo sapiens (Human), UniProt P42345); test: Test 2: mTOR Biochemical Assay (FRAP1/mTOR TR-FRET tracer assay); type: binding; settings: mTOR Kinase Tracer 314
[1] = test system: constitutively active mTOR; test: Test 3: TSC Assay (high content imaging of phospho-S6 (240/244) in TSC1−/− MEFs); type: cell-based; settings: Mus musculus, pS6 240/244 staining, 2 hrs compound treatment
PI3Kα = PI3Kα (Homo sapiens (Human), UniProt P42336); test: Test 1: PI3 Kinase Assay (PI3K KinaseGlo assay); type: biochemical; settings: 1 μM ATP
[2] = Table 1, mCherry-positive LC3 puncta/cell
[3] = Table 4 (unit inferred), mCherry-positive LC3 puncta/cell

Chain of PI3Kα (P42336 other isoform, or with tags, fused parts or gaps): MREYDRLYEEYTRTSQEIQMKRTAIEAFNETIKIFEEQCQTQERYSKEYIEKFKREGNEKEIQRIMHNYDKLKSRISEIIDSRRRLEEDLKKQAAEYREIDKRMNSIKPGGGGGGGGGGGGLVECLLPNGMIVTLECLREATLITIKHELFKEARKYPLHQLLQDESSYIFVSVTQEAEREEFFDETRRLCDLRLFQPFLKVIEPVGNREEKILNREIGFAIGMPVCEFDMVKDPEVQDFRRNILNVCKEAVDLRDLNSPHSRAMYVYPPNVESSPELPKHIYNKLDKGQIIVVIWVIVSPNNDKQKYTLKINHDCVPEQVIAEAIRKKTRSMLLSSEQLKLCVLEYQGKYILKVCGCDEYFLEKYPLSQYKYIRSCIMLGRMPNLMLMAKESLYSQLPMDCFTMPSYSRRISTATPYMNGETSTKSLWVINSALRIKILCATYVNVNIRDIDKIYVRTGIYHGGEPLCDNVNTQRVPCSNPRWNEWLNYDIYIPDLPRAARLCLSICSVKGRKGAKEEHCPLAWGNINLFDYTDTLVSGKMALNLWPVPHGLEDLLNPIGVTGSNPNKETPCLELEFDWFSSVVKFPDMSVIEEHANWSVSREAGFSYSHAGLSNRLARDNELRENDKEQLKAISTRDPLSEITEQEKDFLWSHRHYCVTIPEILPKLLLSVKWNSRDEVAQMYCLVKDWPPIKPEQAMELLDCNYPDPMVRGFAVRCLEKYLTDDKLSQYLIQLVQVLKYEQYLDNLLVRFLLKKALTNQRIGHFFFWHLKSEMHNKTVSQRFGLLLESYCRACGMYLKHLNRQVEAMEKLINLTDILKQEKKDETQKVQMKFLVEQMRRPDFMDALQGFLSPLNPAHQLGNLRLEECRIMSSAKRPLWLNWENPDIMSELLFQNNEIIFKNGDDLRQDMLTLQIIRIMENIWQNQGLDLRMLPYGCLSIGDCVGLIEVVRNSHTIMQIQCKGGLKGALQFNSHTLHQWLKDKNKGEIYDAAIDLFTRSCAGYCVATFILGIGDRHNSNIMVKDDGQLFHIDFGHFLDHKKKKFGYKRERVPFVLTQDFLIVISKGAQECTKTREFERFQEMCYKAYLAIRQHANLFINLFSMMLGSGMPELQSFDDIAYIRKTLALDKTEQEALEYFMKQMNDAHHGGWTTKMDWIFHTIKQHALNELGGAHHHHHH
Chain of FRAP1/mTOR (P42345 1360-2549): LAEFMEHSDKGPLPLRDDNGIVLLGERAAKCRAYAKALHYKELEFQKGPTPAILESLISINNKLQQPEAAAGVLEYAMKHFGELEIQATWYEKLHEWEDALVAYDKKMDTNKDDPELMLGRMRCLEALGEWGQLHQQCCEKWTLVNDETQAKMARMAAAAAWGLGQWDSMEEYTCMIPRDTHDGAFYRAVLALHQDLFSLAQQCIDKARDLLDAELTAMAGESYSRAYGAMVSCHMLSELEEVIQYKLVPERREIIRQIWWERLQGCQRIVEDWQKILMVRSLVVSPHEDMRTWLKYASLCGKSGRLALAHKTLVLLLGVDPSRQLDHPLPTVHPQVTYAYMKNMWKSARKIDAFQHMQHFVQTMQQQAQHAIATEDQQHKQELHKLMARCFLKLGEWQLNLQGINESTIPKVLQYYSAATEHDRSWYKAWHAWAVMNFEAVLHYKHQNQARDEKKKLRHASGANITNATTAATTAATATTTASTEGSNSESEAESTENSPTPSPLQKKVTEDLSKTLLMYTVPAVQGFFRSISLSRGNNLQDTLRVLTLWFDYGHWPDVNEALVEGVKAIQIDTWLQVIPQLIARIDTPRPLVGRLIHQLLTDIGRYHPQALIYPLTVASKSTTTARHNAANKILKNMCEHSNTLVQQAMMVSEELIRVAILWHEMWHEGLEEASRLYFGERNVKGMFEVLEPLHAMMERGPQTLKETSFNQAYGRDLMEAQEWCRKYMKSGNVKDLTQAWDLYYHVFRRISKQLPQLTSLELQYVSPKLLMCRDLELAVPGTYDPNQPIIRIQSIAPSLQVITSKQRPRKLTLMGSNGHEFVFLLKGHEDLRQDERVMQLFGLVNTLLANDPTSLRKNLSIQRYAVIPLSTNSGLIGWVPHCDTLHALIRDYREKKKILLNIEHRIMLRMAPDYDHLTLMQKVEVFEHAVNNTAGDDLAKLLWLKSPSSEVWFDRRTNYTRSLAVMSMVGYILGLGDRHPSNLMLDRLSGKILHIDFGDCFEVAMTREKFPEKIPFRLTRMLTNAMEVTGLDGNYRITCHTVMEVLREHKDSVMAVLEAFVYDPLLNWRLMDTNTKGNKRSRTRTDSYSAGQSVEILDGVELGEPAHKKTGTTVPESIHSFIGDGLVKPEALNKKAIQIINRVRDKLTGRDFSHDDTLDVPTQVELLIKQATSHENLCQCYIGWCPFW

| EC50 (H4 mCherry-GFP-LC3 cells; [2]) [nM] | IC50 (FRAP1/mTOR) [nM] | IC50 [1] [nM] | IC50 (PI3Kα) [nM] | EC50 (H4 mCherry-GFP-LC3 cells; [3]) [nM] | Structure (SMILES) |
| --- | --- | --- | --- | --- | --- |
| 761 | 5 | 113 | 5860 | – | C[C@H]1COCCN1c1nc(N2CCOC[C@@H]2C)c2nc(-c3cccc4[nH]ccc34)[nH]c2n1 [Example 22, 8-(1H-Indol-4-yl)-2,6-bis-((S)-3-methyl-morpholin-4-yl)-9H-purine] |
| – | 60 | 111 | 60 | 461 | C[C@@H]1COCCN1c1nc(N2CCOCC2)c2nc(-c3cccc4[nH]ccc34)[nH]c2n1 [Example 47, 8-(1H-Indol-4-yl)-2-((R)-3-methyl-morpholin-4-yl)-6-morpholin-4-yl-9H-purine] |
| 1550 | 1420 | 1860 | 1800 | – | C[C@H]1COCCN1c1nc(N2CCOCC2)nc2[nH]c(-c3ccc(F)c(CO)c3)nc12 [Example 4, {2-Fluoro-5-[6-((S)-3-methyl-morpholin-4-yl)-2-morpholin-4-yl-9H-purin-8-yl]-phenyl}-methanol] |
| 498 | 237 | 831 | > 9100 | – | C[C@@H]1COCCN1c1nc(N2CCOCC2)nc2[nH]c(-c3ccc4cc[nH]c4c3)nc12 [Example 21, 8-(1H-Indol-6-yl)-6-((R)-3-methyl-morpholin-4-yl)-2-morpholin-4-yl-9H-purine] |
| 7730 | 380 | 2990 | > 9100 | – | CS(=O)(=O)Nc1cccc(-c2nc3c(N4CCOCC4)nc(N4CCOCC4)nc3[nH]2)c1 [Example 33, N-[3-(2,6-Di-morpholin-4-yl-9H-purin-8-yl)-phenyl]-methanesulfonamide] |
| – | 50 | 88 | 420 | 386 | C[C@H]1COCCN1c1nc(N2CC3CCC(C2)O3)nc2[nH]c(-c3cccc4[nH]ccc34)nc12 [Example 52, 8-(1H-Indol-4-yl)-6-((S)-3-methyl-morpholin-4-yl)-2-(8-oxa-3-aza-bicyclo[3.2.1]oct-3-yl)-9H-purine] |
| – | 160 | 146 | 2530 | 2320 | CC1(C)COCCN1c1nc(N2CCOCC2)nc2[nH]c(-c3ccc4cc[nH]c4c3)nc12 [Example 39, 6-(3,3-Dimethyl-morpholin-4-yl)-8-(1H-indol-6-yl)-2-morpholin-4-yl-9H-purine] |
| 1780 | 9 | 62 | 4580 | – | C[C@@H]1COCCN1c1nc(N2CCOC[C@H]2C)c2nc(-c3cccc4[nH]ccc34)[nH]c2n1 [Example 15, 8-(1H-Indol-4-yl)-2,6-bis-((R)-3-methyl-morpholin-4-yl)-9H-purine] |
| – | 30 | 100 | 580 | 171 | C[C@@H]1COCCN1c1nc(N2CC3CCC(C2)O3)nc2[nH]c(-c3cccc4[nH]ccc34)nc12 [Example 46, 8-(1H-Indol-4-yl)-6-((R)-3-methyl-morpholin-4-yl)-2-(8-oxa-3-aza-bicyclo[3.2.1]oct-3-yl)-9H-purine] |
| > 200 | 372 | 458 | 9050 | – | c1cc2ccc(-c3nc4c(N5CCOCC5)nc(N5CCOCC5)nc4[nH]3)cc2[nH]1 [Example 28, 8-(1H-Indol-6-yl)-2,6-di-morpholin-4-yl-9H-purine] |
| 8530 | 469 | 2780 | 430 | – | c1cc2ncc(-c3nc4c(N5CCOCC5)nc(N5CCOCC5)nc4[nH]3)cc2[nH]1 [Example 13, 2,6-Di-morpholin-4-yl-8-(1H-pyrrolo[3,2-b]pyridin-6-yl)-9H-purine] |
| > 700 | 172 | 452 | 2070 | – | COC1CCN(c2nc(N3CCOCC3)c3nc(-c4cccc5[nH]ccc45)[nH]c3n2)CC1 [Example 25, 8-(1H-Indol-4-yl)-2-(4-methoxy-piperidin-1-yl)-6-morpholin-4-yl-9H-purine] |
| 2000 | 134 | 300 | 170 | – | C[C@@H]1COCCN1c1nc(N2CCOC[C@H]2C)c2nc(-c3cc(CO)ccc3F)[nH]c2n1 [Example 19, {3-[2,6-Bis-((R)-3-methyl-morpholin-4-yl)-9H-purin-8-yl]-4-fluoro-phenyl}-methanol] |
| 184 | 8 | 81 | 570 | – | c1cc(-c2nc3c(N4CCOCC4)nc(N4CCOCC4)nc3[nH]2)c2cc[nH]c2c1 [Example 26, 8-(1H-Indol-4-yl)-2,6-di-morpholin-4-yl-9H-purine] |
| 1280 | 7 | 349 | > 9100 | – | C[C@H]1COCCN1c1nc(N2CCOC[C@@H]2C)c2nc(-c3ccc4cc[nH]c4c3)[nH]c2n1 [Example 14, 8-(1H-Indol-6-yl)-2,6-bis-((S)-3-methyl-morpholin-4-yl)-9H-purine] |
| – | 40 | 39 | 1010 | 160 | C[C@@H]1COCCN1c1nc(N2CCOC[C@@H]2C)nc2[nH]c(-c3cccc4[nH]ccc34)nc12 [Example 43, 8-(1H-Indol-4-yl)-2-((S)-3-methyl-morpholin-4-yl)-6-((R)-3-methyl-morpholin-4-yl)-9H-purine] |
| – | 1010 | 1460 | 4300 | 6410 | c1cc2ccc(-c3nc4c(N5C[C@@H]6C[C@H]5CO6)nc(N5CCOCC5)nc4[nH]3)cc2[nH]1 [Example 48, 8-(1H-Indol-6-yl)-2-morpholin-4-yl-6-(1S,4S)-2-oxa-5-aza-bicyclo[2.2.1]hept-5-yl-9H-purine] |
| 363 | 40 | 300 | 1060 | – | Oc1cccc(-c2cc3c(N4CCOCC4)nc(N4CCOCC4)nc3[nH]2)c1 [Example 2, 3-(2,4-Di-morpholin-4-yl-7H-pyrrolo[2,3-d]pyrimidin-6-yl)-phenol] |
| > 10000 | 2020 | 1960 | 2870 | – | CC(O)c1cccc(-c2nc3c(N4CCOC[C@@H]4C)nc(N4CCOCC4)nc3[nH]2)c1 (stereo partly drawn) [Example 12, 1-{3-[6-((S)-3-Methyl-morpholin-4-yl)-2-morpholin-4-yl-9H-purin-8-yl]-phenyl}-ethanol] |
| – | 2390 | 174 | 2010 | 3650 | c1cc(-c2cc3c(N4CCOCC4)nc(N4CCOCC4)nc3[nH]2)c2cc[nH]c2c1 [Example 56, 6-(1H-Indol-4-yl)-2,4-di-morpholin-4-yl-7H-pyrrolo[2,3-d]pyrimidine] |
| – | 350 | 841 | 6470 | > 8000 | CC1(C)COCCN1c1nc(N2CCOCC2)nc2[nH]c(-c3cccc4[nH]ccc34)nc12 [Example 40, 6-(3,3-Dimethyl-morpholin-4-yl)-8-(1H-indol-4-yl)-2-morpholin-4-yl-9H-purine] |
| – | 650 | 989 | 7080 | > 400 | C[C@@H]1COCCN1c1nc(N2CCOC[C@H]2C)c2nc(-c3ccc4cc[nH]c4c3)[nH]c2n1 [Example 45, 8-(1H-Indol-6-yl)-2,6-bis-((R)-3-methyl-morpholin-4-yl)-9H-purine] |
